Data taken from US5276058A, “3,4-dihydroxychalcone derivatives” (Nippon Hypox Laboratories Incorporated, priority 1993, dated 1994).

Tests used:
[1] = system: ear swelling induced by arachidonic acid; assay: topical anti-inflammatory activity test (arachidonic acid-induced ear swelling); type: in vivo, male ICR mice; details: Mus musculus, 1 hour before 1 mg arachidonic acid, read-out: Ratio of inhibition of ear swelling induced by arachidonic acid; for inhibition in vivo at 30 µg/ear: 30 μg/ear; for inhibition in vivo at 100 µg/ear: 100 μg/ear; for inhibition in vivo at 10 µg/ear: 10 μg/ear
Protocol: The 3,4-dihydroxychalcone derivatives shown in Table 9, as test compounds, were subjected to the following topical anti-inflammatory activity test.
Acetone solutions were prepared from the test compounds. Then, the acetone solution were applied to the right ears of male ICR mice such that the dose of each test compound was 10 μg/ear, 30 μg/ear of 100 μg/ear. One hour after the application, 1 mg of arachidonic acid was applied to each right ear to cause ear swelling.
One hour after the application of the arachidonic acid, the mice were sacrificed by vertebral cervical dislocation, and the right and left ears were taken and separately weighed. The weight of the right ear to which the arachidonic acid had been applied was divided by the weight of the non-treated left ear to obtain a swelling ratio.
The effect of each test compound was shown in the following manner. The relative values of the swelling ratios of individual mice were calculated on an assumption that the average value of the swelling ratios of the solvent control group was taken as 100, and amounts of their decreases were expressed by percentages (inhibition ratios).

cyclooxygenase = target: T1, cyclooxygenase (Ovis aries, UniProt P05979); assay: cyclooxygenase inhibiting activity test; type: biochemical; details: sheep seminal vesicle, pH 7.4, prostaglandin E2 formation
T1 construct: containing sheep seminal vesicle; from tissue; host or cells: sheep seminal vesicle
T1 sequence (P05979 25-600): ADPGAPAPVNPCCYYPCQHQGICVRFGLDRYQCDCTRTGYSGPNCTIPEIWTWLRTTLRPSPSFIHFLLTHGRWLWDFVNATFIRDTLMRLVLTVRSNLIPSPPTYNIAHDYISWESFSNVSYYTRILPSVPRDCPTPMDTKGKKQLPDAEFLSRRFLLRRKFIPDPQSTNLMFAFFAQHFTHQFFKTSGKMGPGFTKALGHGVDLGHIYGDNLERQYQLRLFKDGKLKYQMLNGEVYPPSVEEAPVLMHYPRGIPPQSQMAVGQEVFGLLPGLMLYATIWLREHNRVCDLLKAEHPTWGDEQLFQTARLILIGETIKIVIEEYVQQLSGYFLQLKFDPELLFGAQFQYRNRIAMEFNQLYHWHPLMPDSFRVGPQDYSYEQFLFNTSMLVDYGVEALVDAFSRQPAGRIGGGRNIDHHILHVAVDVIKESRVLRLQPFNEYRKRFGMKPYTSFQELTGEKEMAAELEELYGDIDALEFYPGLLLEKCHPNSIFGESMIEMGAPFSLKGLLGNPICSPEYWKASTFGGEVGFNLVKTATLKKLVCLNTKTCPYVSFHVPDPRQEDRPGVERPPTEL
Protocol: A 50 mM phosphoric acid buffer solution (pH 7.4) containing sheep seminal vesicle, 2 mM of glutathione, 0.6 mM of epinephrine and 80 μM of EDTA-2Na preheated at 37° C. for 2 minutes, and then ^14 C-arachidonic acid was added to the reaction mixture. The mixture was heated for 10 minutes to form prostaglandin E2, and the radiation activity of the formed prostaglandin E2 was taken as cyclooxygenase activity. The 3,4-dihydroxychalcone derivatives shown in Table 10 were selected as test compounds. The cyclooxygenase inhibiting activity of each test compound was evaluated as follows. Each test compound was independently added to the above phosphoric acid buffer solution, and the radiation activity of the formed prostaglandin E2 was measured in the same manner as above. The inhibition ratio of each test compound was determined in comparison with that of the control group, and the value of IC50 was calculated by a conventional method.

5-lipoxygenase = target: T2, 5-lipoxygenase (Rattus norvegicus, UniProt P12527); assay: 5-lipoxygenase inhibiting activity test (RBL-1 cell homogenate); type: biochemical; details: pH 7.4, 37° C., 5-HETE formation
T2 construct: endogenous in cells; host or cells: RBL-1 cell homogenate
T2 sequence (P12527 1-673): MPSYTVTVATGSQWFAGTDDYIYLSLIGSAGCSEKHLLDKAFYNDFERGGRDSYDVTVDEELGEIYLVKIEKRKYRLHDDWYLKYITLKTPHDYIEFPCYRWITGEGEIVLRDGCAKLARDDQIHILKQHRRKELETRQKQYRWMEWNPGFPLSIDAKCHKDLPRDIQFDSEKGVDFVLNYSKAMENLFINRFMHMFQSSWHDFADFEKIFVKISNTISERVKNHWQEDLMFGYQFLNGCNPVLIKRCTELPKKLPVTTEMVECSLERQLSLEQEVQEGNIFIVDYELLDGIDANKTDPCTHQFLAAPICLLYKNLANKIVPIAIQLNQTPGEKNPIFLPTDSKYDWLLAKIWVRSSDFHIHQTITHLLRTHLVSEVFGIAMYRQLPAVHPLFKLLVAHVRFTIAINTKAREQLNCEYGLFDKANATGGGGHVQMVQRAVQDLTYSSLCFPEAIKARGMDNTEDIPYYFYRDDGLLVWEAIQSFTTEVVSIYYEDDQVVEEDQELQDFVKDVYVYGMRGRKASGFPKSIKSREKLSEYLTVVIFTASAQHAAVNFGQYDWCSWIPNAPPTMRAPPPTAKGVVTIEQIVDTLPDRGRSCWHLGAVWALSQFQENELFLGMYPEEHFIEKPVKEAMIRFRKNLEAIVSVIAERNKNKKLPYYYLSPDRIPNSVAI
Protocol: RBL-1 cell homogenate was suspended in a 50 mM phosphoric acid buffer solution (pH 7.4) containing 2 mM of CaCl2, 0.25 mM of sucrose, 1 mM of EDTA-2Na and glutathione, and the mixture was heated to 37° C. Arachidonic acid was added to the mixture to form 5-HETE (5-hydroxyeicosatetraenonic acid), and the 5-HETE was measured for an amount by a high-performance liquid chromatography.
The 3,4-dihydroxychalcone derivatives shown in Table 11 were selected as test compounds. The 5-lipoxygenase inhibiting activity of each test compound was evaluated as follows. Each test compound was independently added to the above phosphoric acid buffer solution, and the 5-HETE amount was measured in the same manner as above. The inhibition ratio of each test compound was determined in comparison with that of the control group, and the value of IC50 was calculated by a conventional method.

[2] = Food Chemistry (1983, 12) 205-212; cited from earlier work
[3] = system: enzymes which are to cause inflammation; details: in vitro; PROSTAGLADINSS (1985, 30 (3) 357); cited from earlier work
[4] = JP,A 63-297847; cited from earlier work
[5] = JP,A 61-76433; cited from earlier work

Row | SMILES | IC50 (cyclooxygenase) [µM] | inhibition in vivo at 30 µg/ear [1] [%] | further results
1 | COc1ccc(OC(C)C)cc1C(=O)C=Cc1ccc(O)c(O)c1 [Example 14] | 59.9 | 33 | –
2 | COc1ccccc1C(=O)C=Cc1ccc(O)c(O)c1 [Example 19] | 35.3 | 42 | –
3 | O=C(/C=C/c1ccc(O)c(O)c1)c1ccccc1 [3,4-dihydroxychalcone] | – | – | activity to inhibit the oxidation of edible oils [2]: activity to inhibit the oxidation of edible oils; inhibiting activity against enzymes which are to cause inflammation [3]: inhibiting activity against enzymes which are to cause inflammation
4 | COc1cc(C(=O)C=Cc2ccc(O)c(O)c2)cc(OC)c1OC [Example 30] | – | 65 | –
5 | CCCCOc1ccc(O)c(C(=O)C=Cc2ccc(O)c(O)c2)c1 [Example 9] | – | 31 | –
6 | CCOc1ccc(OC)c(C(=O)C=Cc2ccc(O)c(O)c2)c1 [Example 13] | 26 | 13 | –
7 | COc1cccc(OC)c1C(=O)C=Cc1ccc(O)c(O)c1 [Example 12] | – | 8 | –
8 | CCOc1ccc(O)c(C(=O)C=Cc2ccc(O)c(O)c2)c1 [Example 10] | 129 | 43 | –
9 | CC(C)Oc1ccc(O)c(C(=O)C=Cc2ccc(O)c(O)c2)c1 [Example 8] | – | 67 | –
10 | O=C(/C=C/c1ccc(O)c(O)c1)c1ccccc1O [2',3,4-trihydroxychalcone] | – | – | inhibiting activity against enzymes which are to cause inflammation [3]: inhibiting activity against enzymes which are to cause inflammation
11 | O=C(/C=C/c1ccc(O)c(O)c1)c1cccc(O)c1O [2',3',3,4-tetrahydroxychalcone] | – | – | anti-inflammatory activity [4]: extensive anti-inflammatory activity
12 | CCOc1ccc(OC)cc1C(=O)C=Cc1ccc(O)c(O)c1 [Example 15] | 3.2 | 7.4 | –
13 | COc1ccc(C(=O)C=Cc2ccc(O)c(O)c2)cc1 [Example 21] | 488 | – | inhibition in vivo at 10 µg/ear [1]: 45%
14 | COc1ccc(C(=O)C=Cc2ccc(O)c(O)c2)c(OC)c1OC [3-(3,4-dihydroxyphenyl)-1-(2,3,4-trimethoxyphenyl)-2-propen-1-one] | – | – | antiallergic activity [5]: antiallergic activity
15 | CN(C)c1ccc(C(=O)C=Cc2ccc(O)c(O)c2)cc1 [Example 24] | 808 | 21 | –
16 | CCOc1ccc(OCC)c(C(=O)C=Cc2ccc(O)c(O)c2)c1 [Example 16] | 24.4 | – | inhibition in vivo at 10 µg/ear [1]: 7%
17 | O=C(/C=C/c1ccc(O)c(O)c1)c1ccc(O)cc1 [4',3,4-trihydroxychalcone] | – | – | inhibiting activity against enzymes which are to cause inflammation [3]: inhibiting activity against enzymes which are to cause inflammation
18 | O=C(/C=C/c1ccc(O)c(O)c1)c1ccc(O)cc1O [2',4',3,4-tetrahydroxychalcone] | – | – | inhibiting activity against enzymes which are to cause inflammation [3]: inhibiting activity against enzymes which are to cause inflammation
19 | COc1cc(C(=O)C=Cc2ccc(O)c(O)c2)ccc1O [Example 28] | – | 47 | –
20 | CC(C)Oc1ccc(C(=O)C=Cc2ccc(O)c(O)c2)cc1 [Example 22] | – | 5 | –

Now from value to compound, other results behind:

Row | IC50 (cyclooxygenase) [µM] | SMILES | inhibition in vivo at 30 µg/ear [1] [%] | further results
21 | 17.1 | COc1ccc(OC)c(C(=O)/C=C/c2ccc(O)c(O)c2)c1 [Example 1, 2',5'-dimethoxy-3,4-dihydroxychalcone] | 77 | IC50 (5-lipoxygenase): 7.8 nM
22 | 169 | O=C(C=Cc1ccc(O)c(O)c1)c1cc(O)ccc1O [Example 3] | 39 | –
23 | 210 | Cc1ccc(C(=O)C=Cc2ccc(O)c(O)c2)cc1 [Example 18] | 27 | –
24 | 40.6 | CN(C)c1cccc(C(=O)C=Cc2ccc(O)c(O)c2)c1 [Example 23] | 19 | –
25 | 275 | Cc1cc(C)c(C(=O)C=Cc2ccc(O)c(O)c2)c(C)c1 [Example 27] | 47 | –
26 | 71 | Cc1cccc(C(=O)C=Cc2ccc(O)c(O)c2)c1 [Example 17] | 28 | inhibition in vivo at 100 µg/ear [1]: 38%
27 | 29.7 | COc1ccc(C)cc1C(=O)C=Cc1ccc(O)c(O)c1 [Example 11] | 32 | –
28 | 37.3 | CC(C)c1ccc(O)c(C(=O)C=Cc2ccc(O)c(O)c2)c1 [Example 7] | 9 | –
29 | 121 | Cc1ccc(O)c(C(=O)C=Cc2ccc(O)c(O)c2)c1 [Example 5] | 52 | inhibition in vivo at 10 µg/ear [1]: 31%
30 | 64.8 | COc1ccc(C(=O)C=Cc2ccc(O)c(O)c2)c(O)c1 [Example 4] | 35 | –
31 | 43.7 | Cc1ccc(C)c(C(=O)C=Cc2ccc(O)c(O)c2)c1 [Example 26] | 58 | –
32 | 41.3 | COc1ccc(O)c(C(=O)C=Cc2ccc(O)c(O)c2)c1 [Example 6] | 38 | inhibition in vivo at 10 µg/ear [1]: 7.6%; inhibition in vivo at 100 µg/ear [1]: 43%
33 | 15.1 | COc1cccc(C(=O)C=Cc2ccc(O)c(O)c2)c1 [Example 20] | 58 | –
34 | 829 | COc1ccc(C(=O)C=Cc2ccc(O)c(O)c2)cc1OC [Example 29] | 38 | –
35 | 40.5 | Cc1ccc(C(=O)C=Cc2ccc(O)c(O)c2)c(C)c1 [Example 25] | 43 | –
36 | 156 | COc1ccc(C(=O)C=Cc2ccc(O)c(O)c2)c(OC)c1 [Example 2] | 56 | –
